These results are taken from publication PMC7914367, “Dual-ligand supramolecular nanofibers inspired by the renin-angiotensin system for the targeting and synergistic therapy of myocardial infarction” (Theranostics, 2021).

Square brackets hold non-standard residues; d marks the D form. Ends that are not written are not given here. Peptide text beside a SMILES is read from it. * marks the point of attachment. NBD = O=[N+]([O-])c1ccc(*)c2nonc12; βAla = NCCC(=O)O

The target of series [1] is T1, recombinant human MasR (rhMasR) (Homo sapiens, UniProt P04201).
T1 construct: purchased Abnova H00004142-G01
T1 sequence (P04201 1-325): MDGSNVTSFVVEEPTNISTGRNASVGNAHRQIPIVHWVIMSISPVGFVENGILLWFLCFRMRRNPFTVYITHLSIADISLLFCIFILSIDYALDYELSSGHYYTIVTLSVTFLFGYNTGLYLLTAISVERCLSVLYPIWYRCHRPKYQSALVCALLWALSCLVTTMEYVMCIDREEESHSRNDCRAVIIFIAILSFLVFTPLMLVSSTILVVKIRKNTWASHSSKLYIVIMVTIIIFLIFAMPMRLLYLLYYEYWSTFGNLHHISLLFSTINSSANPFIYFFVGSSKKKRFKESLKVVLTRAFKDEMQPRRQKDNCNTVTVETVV
Description: Surface plasmon resonance imaging (SPRi) binding. As to conditions: rhMasR immobilized on CM5 chip, analytes 0.001-10 μM in PBS. In general terms: In SPR one partner is held on a chip, and binding of the other changes the refractive index at the surface.

The target in the next series is T2, AT1R (Rattus norvegicus, UniProt P25095).
T2 construct: NRCMs under OGD conditions expressed high levels of AT1R (red fluorescence); endogenous in cells; host or cells: primary neonatal rat cardiomyocytes (NRCMs) from Sprague-Dawley rats, normoxia or OGD
T2 sequence (P25095 1-359): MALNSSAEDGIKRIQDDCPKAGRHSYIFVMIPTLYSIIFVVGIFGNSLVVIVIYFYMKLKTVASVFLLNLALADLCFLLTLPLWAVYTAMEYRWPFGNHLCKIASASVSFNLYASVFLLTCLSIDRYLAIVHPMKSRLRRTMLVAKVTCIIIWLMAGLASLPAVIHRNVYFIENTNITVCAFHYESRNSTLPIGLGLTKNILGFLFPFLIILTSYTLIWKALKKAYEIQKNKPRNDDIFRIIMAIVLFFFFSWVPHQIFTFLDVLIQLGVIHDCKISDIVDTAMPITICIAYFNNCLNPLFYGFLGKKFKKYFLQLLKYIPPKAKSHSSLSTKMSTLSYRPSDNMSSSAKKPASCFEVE
In words: Fluorescent co-localization with AT1R in NRCMs. It counts as cell-based. As to conditions: OGD-conditioned NRCMs, 50 μM, 2 h, microscopy.

Series [2] can be described thus: TEM of nanofibers (diameter). It counts as physicochemical. As to conditions: SAA1-7 hydrogel, 1.0 wt% in PBS pH 7.4, heat-cooling. From the text: To construct the dual-ligand supramolecular nanofibers, we designed and synthesized a peptide molecule NBD-^DF^DF^DY^DE^DEG-DRVYIHP (SAA1-7, Figure 1A & Figure S1) as a hydrogelator. […] SAA1-7 could self-assemble into a transparent hydrogel in PBS (pH 7.4) at a concentration of 1.0 wt% via a simple heat-cooling process, in which we observed uniform nanofibers with diameters of 7.6 ± 1.8 nm using transmission electron microscopy (TEM) (Figure S2). The drug loading efficiency and the stability of nanocarriers are attributed to the affinity between amphiphilic peptides and hydrophobic molecules. […] We measured the encapsulation efficiency (EE) and drug loading (DL) of TDCNfs. […]
Subsequently, we studied the co-assembly behaviors and the underlying mechanism of TDCNfs. […] We monitored and compared the nanostructures in the process of hydrogelation at different time points by TEM. […]
(§1) DL and EE were calculated using the following equation. […]
dissolved in PBS (5 mL) and th e pH was adjusted to 7.4. […] Next, 500 μL of the sample was removed at each time point and the rel ease of Tel was analyzed, while the remained SAA1-7 in the sample was analyzed using LC-MS […]
(§2) The CMC values were determined by dynamic light scattering (DLS) and the light scattering intensity was recorded for each concentration. […]

The nature of series [3]: Critical micelle concentration by dynamic light scattering. In kind it is physicochemical. As to conditions: gradient concentrations in MilliQ water. Here is the method: The details are given in Supporting Information.
S1.3 Drug Loading and Encapsulation Efficiency
Tel (dissolved in DMSO) was mixed with SAA1-7 (dissolved in PBS) (pH 7.4, 10 mg/mL) at molar ratios of 15%, 30%, 50%, and 70% (n = 3). After preparation, the mixtures were analy zed using LC-MS (LCMS-20AD, Shimadzu) after lyo philization.
as §1
dissolved in PBS (5 mL) and th e pH was adjusted to 7.4. Proteinase K was added at a concentration of 0.138 mg/mL and the reaction m ixtures were incubated at 37 °C for 24 h. Next, 500 μL of the sample was removed at each time point and the rel ease of Tel was analyzed, while the remained SAA1-7 in the sample was analyzed using LC-MS […]
S1.4 Transmission electron microscopy
The SAA1-7 with 50% molar ratio of Tel was incubated at 40 ℃ for 0 min, 30 min, 60 min, and 120 min, respectively. TEM samples in different time points were prepared. […]
were prepared. The sample preparation procedures : 10 µL samples of each were placed on a carbon-coated copper grid and in cubated for 30 seconds to allow the peptide nanostructures to adhere to the substrate, then rinsed twice with ultrapure water. […]
as §2

Series [4] has as its system MI mouse model. Description: In vivo mechanism: caspase-3 IHC, α-SMA immunofluorescence, type I collagen, TGF-β1, serum cytokines. Further details: species or system C57BL/6 mice. The conditions noted are these: MI mice, 4 weeks post-treatment, immunofluorescence, n = 5. Here is the method:
Frozen sections were prepared in vivo, as described previously. For drugs distribution, near-infrared laser imager (GE Amersham Typhoon, Sweden) was used to capture full cross section of hearts. For co-localization experiments, the mice hearts were dissected 24 h post-injection of drugs. Anti-AT1R primary antibody (1:200 dilution) was used as the primary antibody. For fibrosis investigation, the frozen sections were incubated with primary antibodies against α-SMA (1:400 dilution). The staining signals were visualized using FITC-labeled Goat Anti-Rabbit IgG (1:200 dilution) or Cy3-labeled Goat Anti-Rabbit IgG (1:200 dilution). The sections were counterstained with DAPI and examined under a laser confocal scanning microscope (Leica TCS SP8, Germany).
The heart tissues were fixed in 4% paraformaldehyde, dehydrated in ethanol, cleared in xylene, and embedded in paraffin. The samples were then cut into 6 μm sections on a microtome and deparaffinized. The sections were blocked by incubating with 1% BSA at room temperature for 30 min and then incubated overnight with anti-cleaved caspase-3 (1:700 dilution), anti-AT1R (1:100 dilution), anti-Collagen I (1:200 dilution) at 4 °C. Next, the sections were washed and incubated with secondary antibodies (1:500 dilution) at room temperature. The tissue sections were incubated with diaminobenzidine and counterstained with hematoxylin, dehydrated, and mounted before viewing under a microscope.
The serum and CM were collected at the indicated time points from the different groups of mice. The levels of TNF-α, IL-6, ALT, Cre, and TGF-β1 were measured using ELISA kits according to the manufacturer's protocol. The absorbance was measured at 450 nm using a microplate reader.

Series [5] has as its system MI mouse model. Description: Masson's trichrome staining, infarct size. It counts as in vivo, C57BL/6 mice. As to conditions: MI mice, 4 weeks, collagen area/LV area, MI group 36.60%, vehicle 1219.84 μg/kg, n = 5. Here is the method: Adult male C57BL/6 mice (20-30 g, 8-10 week) were purchased from the laboratory animal center of Southern Medical University, China. The protocols were approved according to the Zhujiang Hospital of Southern Medical University animal care and use committee guidelines, which conform to the guide for the care and use of laboratory animals published by the US National Institutes of Health (8th edition, 2011). […] Next, 100 µL of different drugs were administered intravenously through tail vein injection every 2 days for 3 weeks, while the mice in the Sham and MI groups were treated with an equal volume of PBS.
The mice were sacrificed at 4 weeks after the induction of MI, and hearts and major organs were harvested and fixed in 4% paraformaldehyde overnight and embedded in paraffin. The hearts were sectioned to 5 µm along the short axis transversely across the infarct zone. The major organs were sectioned to 5 µm along the short axis. Following deparaffinization and dehydration, the samples underwent H&E and Masson's trichrome staining. The sections were observed under a microscope to evaluate the therapeutic effect and safety of the drugs. The collagen and LV areas were measured using the Image-Pro Plus software (version 6.0; Media Cybernetics, Silver Spring, MD, USA). Infarct size (%) was calculated as the ratio of the collagen area to the LV area.

The test system of another series is NRCMs. In words: TUNEL staining of OGD NRCMs. It counts as cell-based, rat. As to conditions: 10 μM, 2-3 h, OGD group 26.70%, n = 3.
The target of series [6] is T3, recombinant human MasR (Recombinant Human MAS1 protein) (human) (UniProt P04201).
T3 sequence (P04201 whole entry, looked up): T1 sequence (P04201 1-325)
In words: SPR; SPR imaging (SPRi, PlexArray HT); rhMasR immobilised on a CM5 sensor chip; Ang1-7, SAA1-7 and TDCNfs diluted in PBS at 0.001 to 10 μM.

Description for AT1R: Next, the cells were blocked by incubating with goat serum for 30 min and incubated with primary antibodies overnight at 4 °C. The primary antibodies used here included anti-AT1R (1:200 dilution), anti-cTNT (1:500 dilution), anti-P65 (1:800 dilution), and anti‐α-SMA (1:400 dilution). The cells were incubated with FITC-labeled Goat Anti-Rabbit IgG (1:200 dilution) or Cy3-labeled Goat Anti-Mouse IgG (1:200 dilution) for 2 h at room temperature. The cells were counterstained with DAPI and imaged using a fluorescence microscope (Leica Dmi8, Germany).
(50 μM), SAA1-7+Tel (50 μM) and NBDAng1-7+Tel (50 μM) for further 2 h. PBS was then used to wash cells for three times and 4% paraformaldehyde was added to fix cells for 20 min at room temperature. After being blocked with goat serum for 30 min, rabbit anti-AT1R primary antibody (1:200 dilution) was added to incubat e wit h NRCMs overnight at 4 ℃. After being washed with PBS for three times, Cy3-labeled Goat Anti-Rabbit IgG (1:200 solut ion) was added and incubated with cells for 2 h at room temperature. Cells were then stained with DAPI. The fluorescence i mages were obtained by the fluorescence microscope (λexc =532 nm for AT1R, λexc = 488 nm for NBD, λexc = 405 nm for DAPI).

On to `CC[C@H](C)[C@H](NC(=O)[C@H](Cc1ccc(O)cc1)NC(=O)[C@@H](NC(=O)[C@H](CCCNC(=N)N)NC(=O)[C@@H](N)CC(=O)O)C(C)C)C(=O)N[C@@H](Cc1c[nH]cn1)C(=O)N1CCC[C@H]1C(=O)O` [Ang1-7, DRVYIHP], for which, in series [1], the Kd – broadly, the equilibrium constant for the complex coming apart – came out at 10.3 nM.

`CC[C@H](C)[C@H](NC(=O)[C@H](Cc1ccc(O)cc1)NC(=O)[C@@H](NC(=O)[C@H](CCCNC(=N)N)NC(=O)[C@H](CC(=O)O)NC(=O)CNC(=O)[C@@H](CCC(=O)O)NC(=O)[C@@H](CCC(=O)O)NC(=O)[C@@H](Cc1ccc(O)cc1)NC(=O)[C@@H](Cc1ccccc1)NC(=O)[C@@H](Cc1ccccc1)NC(=O)CCNc1ccc([N+](=O)[O-])c2nonc12)C(C)C)C(=O)N[C@@H](Cc1c[nH]cn1)C(=O)N1CCC[C@H]1C(=O)O` [SAA1-7, NBD-^DF^DF^DY^DE^DEG-DRVYIHP] ({NBD-βAla}-[dF][dF][dY][dE][dE]GDRVYIHP-OH): the “co-localization with AT1R” value at AT1R is on record as “slightly overlapped signal”. Further, the “nanofiber diameter (TEM)” value in series [2] amounted to 7.6 ± 1.8 nm. Moreover, the Kd in series [1] worked out at 12.6 nM. In addition, in series [3], the “critical micelle concentration (CMC)” value came out at 21.95 µM.

Turning to NBD-DFDFDYDEDEG-YRVIPHD [vehicle], the “α-SMA expression in the non-infarcted area” value in the series on MI mouse model [4] is listed as “inhibited to a certain extent”. This molecule also registered an infarct size in the series with MI mouse model [5] of 32.92%. In the series with NRCMs, the “TUNEL-positive NRCMs” value is on record as 23.5%.

On to “NBDAng1-7: Ang1-7 endowed with fluorescence by NBD labeling”, for which, in the series with AT1R, the “co-localization with AT1R” value was “slightly overlapped signal”.

As to {NBD}-[dF][dF][dY][dE][dE]GDRVYIHP (also: co-assembly nanofibers doped with telmisartan) [telmisartan-doped co-assembly nanofibers], in series [6], the Kd is 16.5 nM and the binding value (RU) is 58.2 RU.

As to {NBD}-[dF][dF][dY][dE][dE]GDRVYIHP [self-assembly angiotensin 1-7 (NBD-DF-DF-DY-DE-DE-G-DRVYIHP)], in series [6], the Kd was determined as 12.6 nM and the binding value (RU) amounted to 62.3 RU.

Take DRVYIHP [angiotensin 1-7]: in series [6], the Kd was found to be 10.3 nM and the binding value (RU) stood at 65.1 RU.
